From the NIST ThermoML archive (doi:10.1021/je700619q)

What was measured:
[1] = Boiling temperature at pressure P; conditions: 101 kPa; Liquid; Distillation
[2] = 101 kPa, Liquid
[3] = xn = mol fraction of the nth substance listed; conditions: 101 kPa, Liquid

CCCCCCCCCCO [decan-1-ol]
Conditions | Boiling temperature at pressure P [°C]
[1] | 229.80

[2]
Conditions | mass density [kg/m3] | speed of sound [m/s] | viscosity [mPa·s]
293 K | 830.1 | 1408 | 13.41
303 K | 822.1 | 1375.2 | 9.262
313 K | 815.7 | 1344.8 | 6.515

CCCCCCCCCCO [decan-1-ol] + CCNCC
[3], x2 = 0
Conditions | mass density [kg/m3] | speed of sound [m/s] | viscosity [mPa·s]
293 K | 830.1 | 1408 | 13.41
303 K | 822.1 | 1375.2 | 9.262
313 K | 815.7 | 1344.8 | 6.515

CCNCC [diethylamine]
Conditions | Boiling temperature at pressure P [°C]
[1] | 55.30

[2]
Conditions | mass density [kg/m3] | speed of sound [m/s] | viscosity [mPa·s]
293 K | 707.6 | 1140.8 | 0.3212
303 K | 693.6 | 1089.6 | 0.275
313 K | 678.4 | 1045 | 0.2577

CCNCC [diethylamine] + CCCCCCCCCCO
[3]
Conditions | mass density, 293 K [kg/m3] | mass density, 303 K [kg/m3] | mass density, 313 K [kg/m3] | speed of sound, 293 K [m/s] | speed of sound, 303 K [m/s] | speed of sound, 313 K [m/s] | viscosity, 293 K [mPa·s] | viscosity, 303 K [mPa·s] | viscosity, 313 K [mPa·s]
x1 = 0.0989 | 828.2 | 820.7 | 811.5 | 1383.2 | 1372.4 | 1332.8 | 11.04 | 7.825 | 5.532
x1 = 0.1963 | 824.8 | 814.6 | 806.3 | 1352 | 1350 | 1326 | 8.974 | 6.352 | 4.522
x1 = 0.3062 | 818.1 | 810 | 803.7 | 1347.2 | 1340 | 1316 | 7.105 | 4.977 | 3.558
x1 = 0.4062 | 814.4 | 808.4 | 802.1 | 1333.6 | 1326 | 1297.2 | 5.423 | 3.524 | 2.793
x1 = 0.4898 | 799 | 794.2 | 788.9 | 1321.8 | 1314 | 1290.8 | 3.948 | 2.857 | 2.244
x1 = 0.5973 | 795.6 | 790.7 | 782.9 | 1310.4 | 1302.4 | 1274.8 | 2.609 | 2.015 | 1.631
x1 = 0.6708 | 785.4 | 779.9 | 773.7 | 1302.4 | 1295.6 | 1258.4 | 1.925 | 1.652 | 1.257
x1 = 0.7388 | 779.4 | 773.3 | 769.7 | 1293.6 | 1278.8 | 1238.4 | 1.43 | 1.253 | 0.9795
x1 = 0.8012 | 770.2 | 763.6 | 755.5 | 1288.8 | 1266.4 | 1212 | 1.067 | 0.9298 | 0.7247
x1 = 0.8562 | 759.5 | 753.7 | 745.6 | 1247.2 | 1216.8 | 1164.8 | 0.7924 | 0.689 | 0.5424
x1 = 0.9031 | 741.4 | 737.6 | 728.2 | 1211.2 | 1176 | 1123.2 | 0.6052 | 0.5352 | 0.4368
x1 = 0.9601 | 720.7 | 709.2 | 694.8 | 1173.2 | 1130.4 | 1082 | 0.4396 | 0.3609 | 0.3265
x1 = 1 | 707.6 | 693.6 | 678.4 | 1140.8 | 1089.6 | 1045 | 0.3212 | 0.275 | 0.2577
